Results as given in a melting point compilation (Tetko et al.; mined from patent text by program, amines drawn as free bases though some values may be those of a salt).

Row | SMILES | melting point
1 | CCCCc1nnc2ccccc2c1O | 180 °C
2 | O=Cc1c(O)cccc1OCc1ccccc1C(=O)O | 218 to 220 °C
3 | Oc1cccc(/C=C/c2ccccc2)c1 | 125 to 126 °C
4 | COC(=O)CCc1ccccc1Cc1ccccc1C(=O)O | 123 to 126 °C
5 | COC(=O)C1CCC2C3CCC4CC(O)C(O)CC4(C)C3C(NC3CCCCC3)CC12C (stereo unspecified) | 199 to 202 °C
6 | CC1=C(C2C=CN(C(=O)OCC(Cl)(Cl)Cl)c3ccccc32)SCC(=O)N1 (stereo unspecified) | 166 to 167 °C
7 | CCc1ccc(S(=O)(=O)NC(C)(C)C)s1 | 38 °C
8 | Nc1ncnc2c1c(-c1ccc3cn[nH]c3c1)nn2Cc1oc2ccccc2c(=O)c1-c1ccccc1 | 140 to 143 °C
9 | O=c1cc(Oc2ccccc2)c2cc(C(c3ccc(Cl)cc3)n3ccnc3)ccc2[nH]1 (stereo unspecified) | 233 °C
10 | Cc1cccc2c(-c3ccccc3)onc12 | 73 to 75 °C
11 | c1ccc2c(c1)CCc1nc(-c3ccncc3)oc1-2 | 129 to 130 °C
12 | O=S1(=O)NC2CCCN2c2ccc(O)cc21 (stereo unspecified) | 237 to 242 °C
13 | Cc1cc(C(O)(C(F)(F)F)C(F)(F)F)cc(C)c1NCCCN | 130 to 133 °C
14 | COc1cc(C(=O)Nc2c(C)cc3cn(C(=O)OC(C)(C)C)nc3c2C(=O)NC(C)C)n(N2C=CC=C(Cl)C2)n1 | 161 to 162 °C
15 | CNc1nc(Br)cc(S(=O)(=O)c2ccc(N)cc2)n1 | > 250 °C
16 | CCOCC1=C(C(=O)OCC)C(c2cccc(C#N)c2)C(C(=O)OCC)=C(CC)N1 (stereo unspecified) | 125 °C
17 | CCc1ccc2c(c1)C1CN(C(=O)CCC(=O)c3ccc(F)cc3)CCC1N2 (stereo unspecified) | 120 to 124 °C
18 | O=S(=O)(c1cccs1)N(CC1CC1)c1cccc2cc(-c3ncc(CO)s3)[nH]c12 | 174 °C
19 | CN(C)C1(Cc2ccccc2)CCC(O)(c2csc3ccccc23)CC1 (stereo unspecified) | 158 to 160 °C
20 | Cc1ccc(S(=O)(=O)N2CCC[C@H](CC(=O)NC(C)C)c3ccccc32)cc1 | 131 to 133 °C
21 | CCC(CC)(CO)CCCS(=O)(=O)N=CN(C)C | 87 to 88 °C
22 | CCNc1nc(Cc2cc(OC)c(OC)c(OC)c2)nc2sc(C#N)c(C)c12 | 164 to 165 °C
23 | CCCC(=O)c1ccc(-c2ncccc2S(=O)(=O)Nc2ncc(C)nc2OC)cc1 | 130 to 131 °C
24 | O=C1C(=O)c2ccccc2C2=C1SCC1(CCN(CC3CCCO3)CC1)O2 (stereo unspecified) | 155 to 159 °C

Row | SMILES | melting point
25 | COc1ccc([N+](=O)[O-])c(NCCC[C@H](N)C(=O)O)c1 | 245 to 246 °C
26 | CC(=O)N(c1ccccc1)c1[nH]c2ccccc2c1Sc1ccccc1 | 66 to 68 °C
27 | CS(=O)(=O)N1CCN([C@@H](CNS(=O)(=O)c2ccc(OCc3ccnc(-c4ccccc4)c3)cc2)C(=O)NO)CC1 | 100 °C
28 | CC1(C)Oc2ccc(S(=O)(=O)c3ccccc3)cc2C2OC21 (stereo unspecified) | 103 to 105 °C
29 | COc1ccc(C(=O)Cn2cc[nH]c2=O)cc1OC1CCCC1 | 201 °C
30 | CC1(C)OC2C=CC(=O)C2O1 (single isomer, unassigned; (+)) | 68 to 69 °C
31 | Cc1cccn2cc(CN3CCN(c4ccc(Cl)cc4)CC3)nc12 | 102 to 104 °C
32 | Clc1ccc2c(c1)oc1cc(OCCn3ccnc3)ccc12 | 150 to 151 °C
33 | CCCOc1c([N+](=O)[O-])cccc1[N+](=O)[O-] | 119 to 120 °C
34 | Cc1ccncc1C(O)c1ccc2cc(C(=O)OC(C)C)ccc2c1 (stereo unspecified) | 180 to 183 °C
35 | CC(C)CN(OCc1ccccc1)C(=O)Nc1ccccc1 | 85 to 87 °C
36 | CCC(C)(CC)CC(=O)C(OC(=C1C(=O)N(C(N)=O)c2cc(Cl)c(F)cc21)c1cccs1)C(=O)O (stereo unspecified) | 124 to 125 °C
37 | CN(C)C1CCC(Nc2nc3cc(Cl)c(Cl)cc3nc2-c2ccncc2)CC1 (stereo unspecified) | 183 to 185 °C
38 | CC(C)Oc1ccc(Cc2ccc(N)cc2)cc1 | 92 to 93 °C
39 | CCn1c(=O)n(Cc2ccccc2)c(=O)c2cc(C(=O)OCc3ccccc3)sc21 | 147 to 148 °C
40 | CCc1nc2c(N)nc3cc(-c4cnc5ccccc5c4)cnc3c2n1CC(C)(C)O | > 270 °C
41 | CN(C)C(=N)Nc1ccccc1-c1ccc(Cl)cc1 | 150 to 152 °C
42 | CC(C)(C)OC(=O)C[C@H](NC(=O)CNC(=O)CCc1ccc(C(=N)N)cc1)C(=O)NC1(C(=O)O)CCCC1 | 136 to 138 °C
43 | O=C(Cc1cccnc1)Nc1cccc(-c2ccnc3c(C(=O)c4cccs4)cnn23)c1 | > 200 °C
44 | CCNc1c(C(F)(F)F)cc([N+](=O)[O-])c(NN(C)C)c1[N+](=O)[O-] | 108 to 116 °C
45 | COc1ccc(C#Cc2cc(Cl)cc3c2OC(C(F)(F)F)C(C(=O)O)=C3)cc1 (stereo unspecified) | 218 to 219 °C
46 | CCOC(=O)c1cccc2c(=O)cc(-c3cccc(OCc4ccc5ccccc5n4)c3)oc12 | > 300 °C
47 | Cc1cc(O)ccc1-c1c(C=O)sc(-c2ccc(O)cc2)c1C | 244 to 247 °C
48 | Cc1nn(C)c(F)c1C(=O)Nc1cccc2c1C(C)CC2(C)C (stereo unspecified) | 137 °C

Row | SMILES | melting point
49 | CCCc1c2nc(C(=O)OC)cc(NS(=O)(=O)c3ccc(C)cc3)c2cc2c(=O)cc(C(=O)OCC)oc12 | 219 °C
50 | NC(=O)N(O)Cc1cccc2ccsc12 | 138 to 140 °C
51 | O=S1CCN(c2nc(N3CCOCC3)nc(-n3c(C(F)F)nc4ccccc43)n2)CC1 | 225 to 226 °C
52 | COC(=O)C1=C(C)NC(C)=C(C(=O)OCC(C)C)C1c1cccc2nonc12 (stereo unspecified) | 148 to 158 °C
53 | O=C1N(CCCCN2CCN(c3n[nH]c4ccccc34)CC2)CSC12CCCC2 | 166 to 168 °C
54 | CCCCCC(=O)CCC1CCC(CCCCCCCC(=O)O)O1 (stereo unspecified) | 26 to 28 °C
55 | O=C(O)CCc1cnoc1-c1ccc(-c2ccccc2)cc1 | 94 to 95 °C
56 | CC(O)(COc1ccc(C(=O)c2ccccc2)cc1)C(F)(F)F (stereo unspecified) | 70 to 73 °C
57 | CC(C)(C)OC(=O)NCCNC(=O)c1ccc(Cl)cc1 | 141 to 143 °C
58 | Cc1nc(N)c2nc(CO)n(NC3CCCC3)c2c1C | 254 to 256 °C
59 | CSc1ccc(-c2cc(-c3nc4ccccc4c(=O)n3-c3ccccc3)sc2N2CCOCC2)cc1 | 218 to 220 °C
60 | Cc1cc(F)ccc1-c1ccc2c(c1)NC(=O)CC(c1cccc(-n3ccnc3)c1)=N2 | 170 to 172 °C
61 | C=CCn1c(-c2ccccc2[N+](=O)[O-])nc2ccccc21 | 81.5 to 83 °C
62 | CN(Cc1cc(C(=O)OC(C)(C)C)ccc1[N+](=O)[O-])C(=O)OC(C)(C)C | 56 to 58 °C
63 | CCSc1ccc(SCC)c(C#N)n1 | 63 to 64 °C
64 | Fc1cccc(CC2(Cc3cccc(F)n3)c3cccnc3-c3ncccc32)n1 | 221 to 225 °C
65 | O=C1c2ccccc2C(=O)N1CCCSc1ccccc1 | 83 to 85 °C
66 | COc1cc(C(=O)N2Cc3ccc(C(=O)NCc4cccc(C)c4)n3Cc3ccccc32)ccc1-c1ccccc1C | 165 to 166 °C
67 | O=Cc1cccc(-c2nnn[nH]2)c1 | 185 to 189 °C
68 | Cc1cc(C)c(O)cn1 | 146 to 148 °C
69 | Cc1c(/C=N/OCc2ccc(C(=O)O)c(Br)c2)c2ccccc2n1C | 165 to 166 °C
70 | O=C1OC(=O)c2cc3cccnc3c3cc([N+](=O)[O-])cc1c23 | 268 to 269 °C
71 | Cc1ccnc(S(=O)(=O)c2ccccc2)c1 | 128 to 129 °C
